# Read-outs that look alike come from different tables or passages of the source. Where no end group is shown, it is not given here.
# Tests used:
# gastric juice = conditions: cited from earlier work
# [1] = rat feces collected from 0 to 72 h after administration; conditions: SD rats, up to 72 h
# [2] = rat plasma collected after a single IM injection of [3H]BPC157; conditions: SD rats, up to 24 h
# [3] = rat bile collected from 0 to 72 h after administration (BDC rats); conditions: SD rats, up to 72 h
# [4] = rat urine collected from 0 to 8 h and from 8 to 72 h after administration; conditions: SD rats, up to 72 h
# [5] = rat, in vivo, im, t1/2
# [6] = dog, in vivo, im, t1/2
# [7] = mice, rats, rabbits, or dogs; ref Xu et al., 2020; cited from earlier work
# Text: Previously, we established a solid-phase synthesis process for BPC157 ([Xue et al., 2004]) and verified its biological activity in rat gastric ulcer models and various skin wound models ([Huang et al., 2015]). […] For evaluating its future clinical use as a therapeutic drug and follow-up clinical trials, the present study was undertaken to evaluate the pharmacokinetics, tissue distribution, metabolis ...
# [8] = can be stored at room temperature; ref Sikiric et al., 2018; cited from earlier work
# Text: Body-protective compound (BPC) 157 is a peptide isolated from human gastric juice ([Sikiric et al., 1993]). BPC157 comprises 15 amino acids ([…]) and has a molecular weight of 1419 Da. […] BPC157 exerts a significant protective effect on various tissues and organs, such as th ...
# in vivo [9] = conditions: both, Sprague-Dawley, rat, iv, t1/2
# in vivo [10] = conditions: both, beagle, dog, t1/2
# [11] = Pharmacokinetics of BPC157 in beagle dogs after intravenous and intramuscular administration (plasma)
# [12] = Pharmacokinetics of BPC157 in SD rats after intravenous and intramuscular administration (plasma, LC-MS/MS); conditions: for bioavailability: in vivo
# [13] = Radiometabolite profiling of [3H]BPC157 in rat plasma, urine, bile and feces (HPLC with radioactive detector, LC-MS/MS); assay type: in vivo, SD rats; conditions: for proportion of the bile sample radioactivity: single IM 100 µg/300 μCi/kg [3H]BPC157, mixed bile samples 0 to 72 h; for proportion of the total fecal radioactivity: single IM 100 µg/300 μCi/kg [3H]BPC157, feces 0 to 72 h; for proportion of the total radioactivity in urine: single IM 100 µg/300 μCi/kg [3H]BPC157, mixed urine samples 8 to 72 h
# Description: Thirty intact SD rats, six JVC rats, and six BDC rats (half male and half female subjects) were injected intramuscularly with 100 µg/300 μCi/kg of [3H]BPC157. Whole blood and plasma samples of six JVC rats were collected at 0.05, 0.167, 0.5, 1, 2, 4, 8, 24, 48, and 72 h after administration (three males and three females at each time point) for the examination of radio pharmacokinetics of total plasma. Six intact SD rats were used for urinary, fecal, and biliary excretion studies. Urine and fecal samples were collected from each rat at 0–8, 8–24, 24–48, and 48–72 h. Animal carcasses were collected 72 h after administration. Bile excretion was studied in six SD rats with BDC. Bile, urine, and feces were collected 0–72 h after administration. Tissue distribution of BPC was studied in 24 intact SD rats. The rats were euthanized, and tissue samples (brain, heart, kidneys, liver, spleen, lung, stomach, intestine, muscle, grease, ovaries, womb, testicles, and thymus) were collected at 3 min, 10 min, 1 h, and 24 h after administration (three males and three females at each time point). Male SD rats were administered a single IM injection of blank solvent (excipient), and biological samples, including whole blood, plasma, urine, feces, and tissues, were collected for background control. The radioactivity of the plasma, tissue, bile, urinary, and fecal samples was analyzed using a liquid scintillation counter.
# Plasma, bile, urine, and fecal samples of intact SD rats or BDC rats after a single administration of [3H]BPC157 were analyzed by HPLC combined with a low-energy radionuclide detection technique to obtain the radiometabolite profiles of [3H]BPC157. The structures of the main metabolites of [3H]BPC157 in rat plasma, bile, urine, and feces were analyzed and identified using LC-MS/MS and standard molecular weight comparison.
# [14] = both, beagle, dog, plasma, im, 6 μg/kg
# [15] = both, beagle, dog, plasma, im, 30 μg/kg
# [16] = both, beagle, dog, plasma, im, 150 μg/kg
# [17] = both, beagle, dog, plasma, iv, 6 μg/kg
# [18] = SD rats, single intravenous 20 μg/kg, plasma, LC-MS/MS, mean, n = 6
# [19] = both, Sprague-Dawley, rat, plasma, im, 20 μg/kg
# [20] = both, Sprague-Dawley, rat, plasma, im, 100 μg/kg
# [21] = both, Sprague-Dawley, rat, plasma, im, 500 μg/kg
# [22] = both, Sprague-Dawley, rat, plasma, iv, 20 μg/kg
compound,measurement,setting,value
GEPPPPGKPADDAGLV,not cleaved,gastric juice,"resistant to hydrolysis, enzyme digestion, and even gastric juice"
same,fragment found,[1],[^3H]proline (M1)
same,fragment found,[2],M1(Proline) and M2 and M3 and M4 and M5 and M6
same,fragment found,[3],"[^3H]proline (M1), major"
same,fragment found,[4],"[^3H]proline (M1), major, 0 to 8 h"
"CC(C)C[C@H](NC(=O)CNC(=O)[C@H](C)NC(=O)[C@H](CC(=O)O)NC(=O)[C@H](CC(=O)O)NC(=O)[C@H](C)NC(=O)[C@@H]1CCCN1C(=O)[C@H](CCCCN)NC(=O)CNC(=O)[C@@H]1CCCN1C(=O)[C@@H]1CCCN1C(=O)[C@@H]1CCCN1C(=O)[C@H](CCC(=O)O)NC(=O)CN)C(=O)N[C@H](C(=O)O)C(C)C [BPC157, Gly-Glu-Pro-Pro-Pro-Pro-Gly-Lys-Pro-Ala-Asp-Asp-Ala-Gly-Leu-Val]",half-life,[5],18.5 min
same,half-life,[6],19.6 ± 3.72 min
same,"tolerability, serious toxic effects",[7],well tolerated and did not demonstrate any serious toxic effects
same,stability,[8],"resistant to hydrolysis, enzyme digestion, and even gastric juice"
same,half-life,in vivo [9],15.2 min
same,half-life,in vivo [10]; im,20 ± 5.53 min
same,half-life,in vivo [10]; iv,5.27 ± 2.25 min
same,dose proportionality (AUC0–t and Cmax vs dose),"[11]; beagle dogs, IM 6, 30, 150 μg/kg, linear regression",linear pharmacokinetic characteristics
same,elimination half-life of the prototype drug,"[11]; beagle dogs, IV and IM, all doses, plasma",less than 30 min
same,detection of prototype drug in plasma 4 h after administration,"[11]; beagle dogs, plasma, 4 h after administration",could not be detected
same,Cssav,"[11]; beagle dogs, repeated intramuscular 30 μg/kg for seven consecutive days, Cssav = AUC0–t/τ, mean ± SD, n = 6",0.108 ± 0.0177 ng/mL
same,Cssmin,"[11]; beagle dogs, repeated intramuscular 30 μg/kg for seven consecutive days, Cssmin = (C-48h + C-24h + C0h)/3, mean ± SD, n = 6",0.00285 ± 0.00698 ng/mL
same,time for plasma BPC157 to reach its peak,"[11]; beagles, IM 6, 30, and 150 μg/kg",≤ 9 min
same,AUC(0-inf),[11]; [14],0.5 ng·h/mL
same,AUC(0-t),[11]; [14],0.483 ng·h/mL
same,Cmax,[11]; [14],1.05 ± 0.429 ng/mL
same,MRT,[11]; [14],25.8 min
same,Tmax,[11]; [14],6.33 min
same,bioavailability,[11]; [14],45.3 ± 24.9%
same,AUC(0-inf),[11]; [15],2.73 ng·h/mL
same,AUC(0-t),[11]; [15],2.67 ng·h/mL
same,Cmax,[11]; [15],3.3 ± 0.508 ng/mL
same,MRT,[11]; [15],37 min
same,Tmax,[11]; [15],8.67 min
same,bioavailability,[11]; [15],47.6 ± 18.1%
same,AUC(0-inf),[11]; [16],13.8 ng·h/mL
same,AUC(0-t),[11]; [16],13.8 ng·h/mL
same,Cmax,[11]; [16],26.1 ± 7.82 ng/mL
same,MRT,[11]; [16],31.4 min
same,Tmax,[11]; [16],8.17 min
same,bioavailability,[11]; [16],50.6 ± 27%
same,AUC(0-inf),[11]; [17],1.28 ng·h/mL
same,MRT,[11]; [17],2.49 min
same,clearance,[11]; [17],90.8 ± 40.1 mL/min/kg
same,Tmax,"[11]; dog, in vivo, im",10.5 min
same,Vd,"[11]; dog, in vivo, iv, 6 ug/kg",0.243 ± 0.162 L/kg
same,Cssav,"[12]; SD rats, repeat intramuscular 100 μg/kg for seven consecutive days, Cssav = AUC0–t/τ, τ is the interval of administration",0.290 ng/mL
same,Cssmin,"[12]; SD rats, repeat intramuscular 100 μg/kg for seven consecutive days, Cssmin=(C-48h + C-24h + C0h)/3",0 ng/mL
same,Tmax,"[12]; SD rats, repeat intramuscular 100 μg/kg once a day for seven consecutive days, after last dose, plasma, LC-MS/MS, mean, n = 6",3.00 min
same,Tmax,"[12]; SD rats, single intramuscular 20 μg/kg, plasma, LC-MS/MS, mean, n = 6",3 min
same,Tmax,"[12]; SD rats, single intramuscular 100 μg/kg, plasma, LC-MS/MS, mean, n = 6",3 min
same,Tmax,"[12]; SD rats, single intramuscular 500 μg/kg, plasma, LC-MS/MS, mean, n = 6",3 min
same,MRT,[12]; [18],0.727 min
same,Vss,[12]; [18],0.0364 L/kg
same,AUC(0-inf),[12]; [19],1.25 ng·h/mL
same,AUC(0-t),[12]; [19],1.25 ng·h/mL
same,Cmax,[12]; [19],12.3 ng/mL
same,MRT,[12]; [19],7.27 min
same,Tmax,[12]; [19],3 min
same,AUC(0-inf),[12]; [20],4.83 ng·h/mL
same,AUC(0-t),[12]; [20],4.82 ng·h/mL
same,Cmax,[12]; [20],48.9 ng/mL
same,MRT,[12]; [20],9.61 min
same,Tmax,[12]; [20],3 min
same,AUC(0-inf),[12]; [21],32.2 ng·h/mL
same,AUC(0-t),[12]; [21],32.2 ng·h/mL
same,Cmax,[12]; [21],141 ng/mL
same,MRT,[12]; [21],12.8 min
same,Tmax,[12]; [21],3 min
same,AUC(0-inf),[12]; [22],6.67 ng·h/mL
same,AUC(0-t),[12]; [22],6.65 ng·h/mL
same,clearance,[12]; [22],50.1 mL/min/kg
same,bioavailability,"[12]; rat, im, 20 ug/kg",18.8%
same,bioavailability,"[12]; rat, im, 100 ug/kg",14.5%
same,bioavailability,"[12]; rat, im, 500 ug/kg",19.4%
same,dose proportionality (AUC0–t and Cmax vs dose),"[12]; rats, IM 20, 100, 500 μg/kg, linear regression",linear pharmacokinetic characteristics
same,time for plasma BPC157 to reach its peak,"[12]; rats, IM 20, 100, and 500 μg/kg",≤ 9 min
same,elimination half-life of the prototype drug,"[12]; rats, IV and IM, all doses, plasma",less than 30 min
same,detection of prototype drug in plasma 4 h after administration,"[12]; rats, plasma, 4 h after administration",could not be detected
[3H]O[3H] [tritium water],proportion of the bile sample radioactivity,[13]; female BDC rats,91.2%
same,proportion of the total fecal radioactivity,[13]; female rats,30.1%
same,proportion of the total radioactivity in urine,[13]; female rats,69.5%
same,proportion of the bile sample radioactivity,[13]; male BDC rats,91.0%
same,proportion of the total fecal radioactivity,[13]; male rats,29.3%
same,proportion of the total radioactivity in urine,[13]; male rats,75.3%

# Reference: paper PMC9794587 (Frontiers in Pharmacology, 2022)
